Source: patent publication US8835425B2, “Use of selective GABA A α5 negative allosteric modulators for the treatment of central nervous system conditions” (Hoffmann-La Roche Inc., priority 2010, dated 2014)
Where two headings read alike, the source gives them in different places.

What was measured:
Ts65Dn and control mice = experiment: Exploratory activity: hole board; format: in vivo; conditions: 20 mg/kg p.o. chronic; for ABA index / Crossings / Number of Head-dippings / Rearings / Time exploring holes: hole board
Protocol: For mice studies, active pharmaceutical compounds of present invention were formulated in chocolate-milk (Puleva, Barcelona, Spain). Active pharmaceutical compounds of present invention or vehicle were administered p.o. at a dose of 20 mg/kg for six weeks. Their administration was prolonged during the 30 days of the behavioral assessment.
The hole board is a wooden box (32×32×30 cm) with four holes. The floor is divided into nine 10 cm squares. In a single 5 minute trial the number of explorations, the time spent exploring each hole, and overall activity in the apparatus were measured. A repetition index was also calculated (exploration of holes previously explored) as a function of the number of ABA alternations.

[1] = tested on: hippocampus of TS and CO mice; experiment: Hippocampal neurogenesis, granule cell density and GAD+ boutons after chronic treatment; format: in vivo
From the text: Alterations in hippocampal morphology such as reductions in granule cell density and hippocampal neurogenesis have also been implicated in the learning deficits shown by Ts65Dn mice. Spatial learning is known to depend on the functional integrity of the hippocampus, a structure that plays a key role in information encoding and retrieving in the CNS. […] Also, neuronal survival of the cells that have undergone maturation was also normalized in TS mice, as shown by the increase in DAPI+ cells found in TS mice after chronic 8581 administration (p=0.026; FIG. 14).

Nf1+/− mice = experiment: Spatial learning of Nf1+/− mice in the Morris water maze; format: in vivo
Protocol: 1 week after handling, mice were trained with two consecutive trials per day for 8-9 days 30 minutes after i.p. injection of 8581 or vehicle. In each trial, mice were given 60 s to find the platform. After each trial, mice were put on the platform for 15 s. On the day of probe trial (Day 3, Day 5, Day 7, and Day 9) 60 s of probe trial was performed after training. […] Two different measures of spatial learning (% search in quadrant (FIG. 16) and average proximity to the target platform (FIG. 17)) show similarly, that active pharmaceutical compounds used in present invention rescue spatial learning deficits of Nf1+/− mice (CO/veh (n=10), Nf1/veh (n=9), CO/8581 (n=10), and Nf1/8581 (n=11).
Effects of active pharmaceutical compounds used in present invention on the performance of Nf1+/− mice were tested under conditions in which the spatial learning of the mutants was indistinguishable from controls (less extinction due to lower number of probe trials). Mean percentage of time spent in each quadrant during a probe trial in plotted in FIG. 18. Average proximity to the target quadrant is plotted in FIG. 19. […] On probe trial 1 and 2 (days 5 and 7), all groups searched selectively in the target quadrant (p<0.01), and there were no differences between groups.

Control mice (B16;129F1) = experiment: Contextual fear conditioning; format: in vivo
Protocol: Control mice (B16;129F1) were trained with a contextual fear-conditioning protocol using either one trial per day for one day (FIG. 20) or two consecutive days (FIG. 21). On the training day, 30 minutes after i.p. injection of 8581 or vehicle, mice were placed in training chamber. A foot shock (1 s, 0.4 mA) was delivered 40 s after placement. Conditioned response (percentage freezing time of the mice) was recorded 24 h after training by using automated procedures. Average freezing levels during the first 30 s of each training day and 24 hr after the last training trial were plotted.

[2] = tested on: Nf1+/− mice and control mice (B16;129F1); experiment: Rotarod, accelerating speeds, Nf1+/− and control mice; format: in vivo; conditions: Nf1+/− mutant or control mice, 1 mg/kg i.p.
Protocol: Control mice (B16;129F1) and Nf1+/− mice were treated with vehicle or with 8581 (n=10 for each of the 4 groups). 30 minutes after i.p. injection of 8581 (1 mg/kg) or vehicle, mice were tested with a rotarod protocol using accelerating speeds (4-40 rpm, maximal duration 300 s) for four trials with 30 min intertrial interval. FIG. 22 visualizes performance of control mice in the Rotarod and FIG. 23 illustrates the performance of Nf1+/− mice in the Rotarod.

[3] = 8581 concentration in serum after i.p. injection; format: in vivo, mice; conditions: ip; for concentration at 0.5 h: 0.5 h after i.p. injection; for concentration at 3 h: 3 h after i.p. injection; for concentration at 7 h: 7 h after i.p. injection; for concentration at 24 h: 24 h after i.p. injection
Protocol: Table 5. 8581 concentration in serum (ng/ml) of Nf1+/− and control mice 0.5, 3, 7, and 24 hours after i.p. injection

human GABA A α2β3γ2 = human GABA A α2β3γ2 (Homo sapiens, UniProt P18507+P47869); experiment: [3H]flumazenil competition binding, HEK293 cells expressing human α2β3γ2; set-up: expressed in transfected cells; host or cells: HEK293; conditions: for hKi α2/hKi α5: binding selectivity ratio
[4] = TS mice, chronic administration
[5] = B16;129F1, mouse, 0.1 mg/kg, control mice
[6] = B16;129F1, mouse, 1 mg/kg, control mice

FC(F)c1ncn2c1Cn1ncnc1-c1cc(Br)ccc1-2 [Compound 8581, 3-Bromo-10-difluoromethyl-9H-imidazo[1,5-a][1,2,4]triazolo[1,5-d][1,4]benzodiazepine]
hyperactivity (crossings) of Ts65Dn mice in hole board (Ts65Dn and control mice; Ts65Dn mice): reduced this hyperactivity
normalization of ABA index of Ts65Dn mice (Ts65Dn and control mice; Ts65Dn mice): normalized
ABA index (Ts65Dn and control mice; Ts65Dn mice): 3.89
Crossings (Ts65Dn and control mice; Ts65Dn mice): 106.11
Number of Head-dippings (Ts65Dn and control mice; Ts65Dn mice): 18.22
Rearings (Ts65Dn and control mice; Ts65Dn mice): 20.67
Time exploring holes (Ts65Dn and control mice; Ts65Dn mice): 26.28
ABA index (Ts65Dn and control mice; control mice): 2.64
Crossings (Ts65Dn and control mice; control mice): 73.27
Number of Head-dippings (Ts65Dn and control mice; control mice): 14.82
Rearings (Ts65Dn and control mice; control mice): 17.73
Time exploring holes (Ts65Dn and control mice; control mice): 30.43
number of GABAergic synapses (GAD+) in CO mice ([1]; CO mice, chronic treatment): non-significant tendency to increase
density of proliferating (Ki67+) cells in hippocampus [1, 4]: completely restored the density of proliferating cells
neuronal survival (DAPI+ cells, granular cell layer) [1, 4]: normalized
number of GAD positive boutons in hippocampus ([1]; TS mice, chronic treatment): decreased dramatically
performance of Nf1+/− mice under conditions that occlude their behavioral deficits (Nf1+/− mice; 1 mg/kg): does not affect the performance
spatial learning deficits of Nf1+/− mice (Nf1+/− mice; Nf1+/− mice, 1 mg/kg i.p. 30 minutes before training, probe trials): rescued the spatial learning deficits
contextual conditioning, training for two consecutive days (Control mice (B16;129F1); control mice, 1 mg/kg i.p.): significant increase in contextual conditioning
freezing at 24 hr after training (Control mice (B16;129F1); control mice, 3 mg/kg i.p., one training day): significantly enhanced freezing
contextual fear conditioning dose response curve (Control mice (B16;129F1); control mice, 0.3, 1.0 and 3.0 mg/kg): dose-dependent increase in contextual fear conditioning
performance in rotarod [2]: did not affect the performance
concentration at 0.5 h [3, 5]: 9.45 ± 3.05 ng/mL
concentration at 0.5 h [3, 6]: 271 ± 1 ng/mL
concentration at 3 h [3, 5]: < 0.5 ng/mL
concentration at 3 h [3, 6]: 11.9 ± 2.51 ng/mL
concentration at 7 h [3, 5]: < 0.5 ng/mL
concentration at 7 h [3, 6]: < 0.5 ng/mL
concentration at 24 h [3, 5]: < 0.5 ng/mL
concentration at 24 h [3, 6]: < 0.5 ng/mL
concentration at 0.5 h ([3]; mouse, 0.1 mg/kg, Nf1+/− mice): 11 ± 1.73 ng/mL
concentration at 0.5 h ([3]; mouse, 1 mg/kg, Nf1+/− mice): 192 ± 35 ng/mL
concentration at 3 h ([3]; mouse, 0.1 mg/kg, Nf1+/− mice): < 0.5 ng/mL
concentration at 3 h ([3]; mouse, 1 mg/kg, Nf1+/− mice): 8.95 ± 0.5 ng/mL
concentration at 7 h ([3]; mouse, 0.1 mg/kg, Nf1+/− mice): < 0.5 ng/mL
concentration at 7 h ([3]; mouse, 1 mg/kg, Nf1+/− mice): < 0.5 ng/mL
concentration at 24 h ([3]; mouse, 0.1 mg/kg, Nf1+/− mice): < 0.5 ng/mL
concentration at 24 h ([3]; mouse, 1 mg/kg, Nf1+/− mice): < 0.5 ng/mL
Ki (human GABA A α2β3γ2; [3H]flumazenil competition, human α2β3γ2, read-out: hKi α2): 185 nM
hKi α2/hKi α5 (human GABA A α2β3γ2): 40

Cc1onc(-c2ccc(F)cc2)c1COc1ccc(C(=O)N2CCS(=O)(=O)CC2)cn1 [Compound R1, (1,1-Dioxo-1,6-thiomorpholin-4-yl)-{6-[3-(4-fluoro-phenyl)-5-methyl-isoxazol-4-ylmethoxy]-pyridin-3-yl}-methanone]
hyperactivity (crossings) of Ts65Dn mice in hole board (Ts65Dn and control mice; Ts65Dn mice): reduced this hyperactivity
ABA index (Ts65Dn and control mice; Ts65Dn mice): 4.25
Crossings (Ts65Dn and control mice; Ts65Dn mice): 93.19
Number of Head-dippings (Ts65Dn and control mice; Ts65Dn mice): 20.50
Rearings (Ts65Dn and control mice; Ts65Dn mice): 13.19
Time exploring holes (Ts65Dn and control mice; Ts65Dn mice): 37.58
ABA index (Ts65Dn and control mice; control mice): 4.06
Crossings (Ts65Dn and control mice; control mice): 72.13
Number of Head-dippings (Ts65Dn and control mice; control mice): 16.13
Rearings (Ts65Dn and control mice; control mice): 13.86
Time exploring holes (Ts65Dn and control mice; control mice): 28.28
Ki (human GABA A α2β3γ2): 502 nM
hKi α2/hKi α5 (human GABA A α2β3γ2): 107
